Measured values as given in patent publication US5410024A, “Human cancer inhibitory pentapeptide amides” (Arizona Board of Regents acting on behalf of Arizona State …, priority 1993, dated 1995).

Legend:
Format in all cases: cell-based
OVCAR-3 = assay: NCI human tumor cell line screen, Ovarian OVCAR-3; conditions: for GI-50 / LC-50 / TGI: Ovarian OVCAR-3
Excerpt: (§1) Current research in the control of cancer in the United States is coordinated by the National Cancer Institute (NCI). To determine whether a substance has anti-cancer properties, the NCI has established a systematic protocol. […] The protocol, and the established statistical means for analyzing the results obtained by the standardized testing are fully described in the literature. […] Both of these references are incorporated herein by this reference thereto.

SF-295 = assay: NCI human tumor cell line screen, CNS SF-295; conditions: for GI-50 / LC-50 / TGI: CNS SF-295
Excerpt: as §1

A498 = assay: NCI human tumor cell line screen, Renal A498; conditions: for GI-50 / LC-50 / TGI: Renal A498
Excerpt: as §1

NCI-H460 = assay: NCI human tumor cell line screen, Lung-NSC NCI-H460; conditions: for GI-50 / LC-50 / TGI: Lung-NSC NCI-H460
Excerpt: as §1

KM20L2 = assay: NCI human tumor cell line screen, Colon KM20L2; conditions: for GI-50 / LC-50 / TGI: Colon KM20L2; for GI50, minipanel cell line E: minipanel comparison
Excerpt: as §1

SK-MEL-5 = assay: NCI human tumor cell line screen, Melanoma SK-MEL-5; conditions: for GI-50 / LC-50 / TGI: Melanoma SK-MEL-5
Excerpt: as §1

human tumor cell lines = assay: Inhibition of human tumor cell lines (general statements); conditions: for GI50: for at least six cell lines
Excerpt: Current research in the control of cancer in the United States is coordinated by the National Cancer Institute (NCI). To determine whether a substance has anti-cancer properties, the NCI has established a systematic protocol. This protocol, which involves the testing of a substance against a standard cell line panel containing 60 human tumor cell lines, has been verified and is accepted in scientific circles. The protocol, and the established statistical means for analyzing the results obtained by the standardized testing are fully described in the literature. See: Boyd, Dr. Michael R., Principles & Practice of Oncology, PPO Updates, Volume 3, Number 10, October 1989, for an in depth description of the testing protocol; and Paull, K. D., "Display and Analysis of Patterns of Differential Activity of Drugs Against Human Tumor Cell Lines; Development of Mean Graph and COMPARE Algorithm", Journal of the National Cancer Institute Reports, Vol. 81, No. 14, Page 1088, Jul. 14, 1989 for a description of the methods of statistical analysis. Both of these references are incorporated herein by this reference thereto.

Row | Substance | GI-50 (OVCAR-3) | LC-50 (OVCAR-3) | TGI (OVCAR-3) | GI-50 (SF-295) | LC-50 (SF-295) | TGI (SF-295) | GI-50 (A498) | LC-50 (A498) | TGI (A498) | GI-50 (NCI-H460) | LC-50 (NCI-H460) | TGI (NCI-H460) | GI-50 (KM20L2) | LC-50 (KM20L2) | TGI (KM20L2) | GI-50 (SK-MEL-5) | LC-50 (SK-MEL-5) | TGI (SK-MEL-5) | also measured
1 | L-Dolavalyl-L-Valyl-N-Methyl-(S,S,R)-Dolaisoleucyl-(S,R,R)-Dolaproyl-L-Phenylalanineamide-N-(methenyl-2-pyridine) [Compound 9i] | 0.000056 µg/mL | > 0.01 µg/mL | 2 ng/mL | 0.00036 µg/mL | > 0.01 µg/mL | > 10 ng/mL | 0.00059 µg/mL | > 0.01 µg/mL | > 10 ng/mL | 0.000051 µg/mL | > 0.01 µg/mL | 1 ng/mL | 0.00033 µg/mL | > 0.01 µg/mL | > 10 ng/mL | 0.000029 µg/mL | > 0.01 µg/mL | > 10 ng/mL | 
2 | L-Dolavalyl-L-Valyl-N-Methyl-(S,S,R)-Dolaisoleucyl-(S,R,R)-Dolaproyl-L-Phenylalanineamide-N-(2-benzothiazole) [Compound 9e] | 0.000000033 µg/mL |  | 0.00019 ng/mL | 0.00000011 µg/mL |  | 0.00096 ng/mL |  |  | > 0.001 ng/mL | 0.000000039 µg/mL |  | 0.00044 ng/mL |  |  | 0.0007 ng/mL | 0.000000030 µg/mL |  | > 0.001 ng/mL | GI50, minipanel cell line C (A498; minipanel comparison, column C (key not visible; values match A498)): 0.00023 ng/mL; GI50, minipanel cell line E (KM20L2): 0.00026 ng/mL; GI50 (human tumor cell lines): less than 10^-7 μg/ml
3 | L-Dolavalyl-L-Valyl-N-Methyl-(S,S,R)-Dolaisoleucyl-(S,R,R)-Dolaproyl-L-Phenylalanineamide-N-[2-(6-methoxybenzo-thiazole)] [Compound 9f] | 0.00032 µg/mL | > 0.01 µg/mL | 1.1 ng/mL | 0.00055 µg/mL | > 0.01 µg/mL | > 10 ng/mL | 0.00037 µg/mL | > 0.01 µg/mL | > 10 ng/mL | 0.00033 µg/mL | > 0.01 µg/mL | 1.6 ng/mL | 0.00036 µg/mL | > 0.01 µg/mL | 2.2 ng/mL | 0.000090 µg/mL | > 0.01 µg/mL | > 10 ng/mL | 
4 | L-Dolavalyl-L-Valyl-N-Methyl-(S,S,R)-Dolaisoleucyl-(S,R,R)-Dolaproyl-L-Phenylalanineamide-N-(methenyl-2-thiophene) [Compound 9h] | < 0.000001 µg/mL | 0.0097 µg/mL | 0.28 ng/mL | 0.00014 µg/mL | > 0.01 µg/mL | > 10 ng/mL | 0.000055 µg/mL | > 0.01 µg/mL | 6.9 ng/mL | 0.0000089 µg/mL | > 0.01 µg/mL | 0.37 ng/mL | 0.000049 µg/mL | > 0.01 µg/mL | 1.3 ng/mL | < 0.000001 µg/mL | > 0.01 µg/mL | > 10 ng/mL | 
5 | L-Dolavalyl-L-Valyl-N-Methyl-(S,S,R)-Dolaisoleucyl-(S,R,R)-Dolaproyl-L-Phenylalanineamide-N-[2-(1,3,4-thiadiazole)] [Compound 9d] | 0.0000031 µg/mL | > 0.0001 µg/mL | 0.16 ng/mL | 0.000024 µg/mL | > 0.0001 µg/mL | > 0.1 ng/mL | 0.000039 µg/mL | > 0.0001 µg/mL | > 0.1 ng/mL | 0.0000036 µg/mL | > 0.0001 µg/mL | 0.061 ng/mL | 0.0000099 µg/mL | 0.00069 µg/mL | 0.015 ng/mL | 0.0000082 µg/mL | 0.00043 µg/mL | 0.007 ng/mL | 
6 | L-Dolavalyl-L-Valyl-N-Methyl-(S,S,R)-Dolaisoleucyl-(S,R,R)-Dolaproyl-L-Phenylalanineamide-N-[2-(4-phenylthiazole)] [Compound 9c] | 0.000020 µg/mL | > 0.001 µg/mL | 0.13 ng/mL | 0.000065 µg/mL | > 0.001 µg/mL | > 1 ng/mL | 0.000057 µg/mL | > 0.001 µg/mL | 0.72 ng/mL | 0.000056 µg/mL | > 0.001 µg/mL | 0.51 ng/mL | 0.0002 µg/mL | > 0.001 µg/mL | 0.75 ng/mL | 0.000043 µg/mL | > 0.001 µg/mL | 0.33 ng/mL | 
7 | L-Dolavalyl-L-Valyl-N-Methyl-(S,S,R)-Dolaisoleucyl-(S,R,R)-Dolaproyl-L-Phenylalanineamide-N-(3-quinoline) [Compound 9g] |  | > 0.000001 µg/mL | 7.9e-05 ng/mL |  | > 0.000001 µg/mL | 0.00061 ng/mL | 0.000000100 µg/mL | > 0.000001 µg/mL | > 0.001 ng/mL |  | > 0.000001 µg/mL | 0.00012 ng/mL |  | > 0.000001 µg/mL | 0.00023 ng/mL |  | > 0.000001 µg/mL | > 0.001 ng/mL | GI50, minipanel cell line A (OVCAR-3; minipanel comparison, column A (key not visible; values match OVCAR-3)): 4.6e-07 ng/mL; GI50, minipanel cell line B (SF-295; minipanel comparison, column B (key not visible; values match SF-295)): 4e-05 ng/mL; GI50, minipanel cell line D (NCI-H460; minipanel comparison, column D (key not visible; values match NCI-H460)): 1.3e-05 ng/mL; GI50, minipanel cell line E (KM20L2): 3.9e-05 ng/mL; GI50, minipanel cell line F (SK-MEL-5; minipanel comparison, column F (key not visible; values match SK-MEL-5)): 3e-06 ng/mL; GI50 (human tumor cell lines): less than 10^-7 μg/ml
8 | L-Dolavalyl-L-Valyl-N-Methyl-(S,S,R)-Dolaisoleucyl-(S,R,R)-Dolaproyl-L-Phenylalanineamide-N-(2-thiazole) [Compound 9a] | 0.0000005 µg/mL | 0.000088 µg/mL | 0.0044 ng/mL | 0.0000038 µg/mL |  | > 0.1 ng/mL | 0.0000056 µg/mL |  | 0.09 ng/mL | 0.0000018 µg/mL |  | 0.009 ng/mL | 0.0000020 µg/mL |  | 0.011 ng/mL | 0.0000014 µg/mL |  | 0.08 ng/mL | 
9 | L-Dolavalyl-L-Valyl-N-Methyl-(S,S,R)-Dolaisoleucyl-(S,R,R)-Dolaproyl-L-Phenylalanineamide-N-(1-adamantane) [Compound 9j] | 0.000019 µg/mL | > 0.0001 µg/mL | 0.055 ng/mL | 0.000030 µg/mL | > 0.0001 µg/mL | > 0.1 ng/mL | 0.000034 µg/mL | > 0.0001 µg/mL | > 0.1 ng/mL | 0.000014 µg/mL | > 0.0001 µg/mL | 0.057 ng/mL | 0.000027 µg/mL | > 0.0001 µg/mL | 0.072 ng/mL | 0.000022 µg/mL | > 0.0001 µg/mL | > 0.1 ng/mL | 
10 | L-Dolavalyl-L-Valyl-N-Methyl-(S,S,R)-Dolaisoleucyl-(S,R,R)-Dolaproyl-L-Phenylalanineamide-N-[2-(4-methylthiazole)] [Compound 9b] | 0.00000020 µg/mL |  | 0.012 ng/mL | 0.0000026 µg/mL | > 0.0001 µg/mL | > 0.1 ng/mL | 0.0000053 µg/mL | > 0.0001 µg/mL | > 0.1 ng/mL | 0.00000046 µg/mL | > 0.0001 µg/mL | 0.013 ng/mL | 0.0000034 µg/mL | > 0.0001 µg/mL | 0.017 ng/mL | 0.00000081 µg/mL | > 0.0001 µg/mL | > 0.1 ng/mL | 
11 | (R)-Doe-isoDolastatin 10 [reference compound] |  |  |  |  |  |  |  |  |  |  |  |  |  |  |  |  |  |  | human cancer cell line activity as compared to Dolastatin 10 (human tumor cell lines): did not show any significant difference
